This passage reports EC50 results from patent US7601746B2 (Shionogi & Co., Ltd., priority 2003, dated 2009).

The target of the test is T1, human TPO receptor (hTPOR) (Homo sapiens, UniProt P40238).
T1 construct: expressed in transfected cells; host or cells: BaF-B03 (murine IL-3 dependent cell line)
T1 sequence (P40238 26-635): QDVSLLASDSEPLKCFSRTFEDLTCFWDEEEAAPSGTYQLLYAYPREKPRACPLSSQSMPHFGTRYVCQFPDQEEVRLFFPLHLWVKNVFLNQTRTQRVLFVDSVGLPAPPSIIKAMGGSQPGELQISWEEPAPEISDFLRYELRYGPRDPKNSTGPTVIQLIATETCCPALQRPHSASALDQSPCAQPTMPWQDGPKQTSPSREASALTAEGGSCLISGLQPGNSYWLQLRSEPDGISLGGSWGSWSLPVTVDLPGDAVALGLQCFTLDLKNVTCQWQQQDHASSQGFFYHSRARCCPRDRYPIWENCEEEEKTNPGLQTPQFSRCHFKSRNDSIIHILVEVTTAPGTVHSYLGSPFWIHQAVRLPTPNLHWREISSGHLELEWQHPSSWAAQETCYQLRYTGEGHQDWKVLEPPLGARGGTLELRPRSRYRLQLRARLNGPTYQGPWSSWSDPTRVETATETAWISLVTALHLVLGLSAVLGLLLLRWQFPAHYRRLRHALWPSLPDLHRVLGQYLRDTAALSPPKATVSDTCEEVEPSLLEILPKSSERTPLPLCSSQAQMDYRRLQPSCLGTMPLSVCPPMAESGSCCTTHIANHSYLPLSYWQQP
As to the kind of experiment: Thrombopoietic activity: proliferation of TPO dependent BaF/hTPOR cells (WST-1, absorbance at 450 nm). In kind it is cell-based. The conditions noted are these: 20 h + 4 h WST-1, ED50 = half concentration of the concentration showing the maximum thrombopoietic activity. An excerpt: The TPO dependent BaF/hTPOR cell line which was established by introducing human TPO receptor (hTPOR) into BaF-B03 cells according to Collins et al (J. Cell. Physiol., 137:293-298 (1988)) was used to test the thrombopoietic activity of the present compound. The DNA sequences and encoded peptide sequences for human hTPOR have been described by Vigon et al (Proc. Natl. Acad. Sci. USA, 89:5640-5644 (1992)). TPO dose not have any ability to support proliferation of interlukin-3 dependent parental cell line BaF-B03. BAF/hTPOR cells were maintained in RPMI medium and WEHI-3B conditioned medium as a source of murine interleukin-3 (IL-3). These cells were washed and resuspended in RPMI medium without a source of murine IL-3 and seeded into each well of 96-well microtiter plates at a density of 5×10^4 cells per well in the absence or presence of various concentration of hTPO or the present compound. After incubation at 37° C. for 20 hours in the 5% CO2 incubator, 10% WST-1 reagent (Takara Biomedicals, Japan) was added to each wells and the cells were further incubated for 4 hours. The absorbance at 450 nm was measured. Tables 1 and 2 exemplify the ED50 for tested compounds of the present invention, wherein the ED50 is the half concentration of the concentration showing the maximum thrombopoietic activity.
(Tetrazolium assays rely on reduction of a dye to a coloured formazan, in cell work by metabolically active cells.)

One may read the EC50 as the concentration needed to bring the measured effect to its halfway point.

`CCCCCCOCCC(OC)c1cccc(-c2csc(NC(=O)c3cc(Cl)c(C=C(C)C(=O)O)c(Cl)c3)n2)c1F` (stereo not shown) [Compound B101, 3-(2,6-dichloro-4-{4-[2-fluoro-3-(3-n-hexyloxy-1-methyloxypropyl)phenyl]thiazol-2-ylcarbamoyl)phenyl]-2-methylacrylic acid]: for the setting “Table 1”, the EC50 stood at 1.9 nM. The same measure, in the same setting: the figure for `COc1c(CCCOCCC(C)C)cccc1-c1csc(NC(=O)c2cc(Cl)c(/C=C(\C)C(=O)O)c(Cl)c2)n1` [Compound B1852, (E)-3-[2,6-dichloro-4-(4-{2-methyloxy-3-[3-(3-methylbutyloxy)propyl]phenyl}thiazol-2-ylcarbamoyl)phenyl]-2-methylacrylic acid] is 16.5 nM; for `CCc1cccc2c1OCc1sc(NC(=O)c3cc(Cl)c(/C=C(\C)C(=O)O)c(Cl)c3)nc1-2` [Compound A1310, (E)-3-[2,6-dichloro-4-(6-ethyl-4H-chromeno[4,3-d]thiazol-2-ylcabamoyl)phenyl]-2-methylacrylic acid] it is 12.3 nM; for `CCCCCCCCC(OC)c1cccc(-c2csc(NC(=O)c3cc(Cl)c(C=C(C)C(=O)O)c(Cl)c3)n2)c1F` (stereo not shown) [Compound B72, 3-(2,6-dichloro-4-{4-[2-fluoro-3-(1-methyloxynonyl)phenyl]thiazol-2-ylcarbamoyl}phenyl)-2-methylacrylic acid] it is 0.78 nM. Consider `CCC(CCCc1cccc(-c2csc(NC(=O)c3cc(F)c(C=C(C)C(=O)O)c(F)c3)n2)c1F)OC` (stereo not shown) [Compound B12, 3-(2,6-difluoro-4-{4-[2-fluoro-3-(4-methyloxyhexyl)phenyl]thiazol-2-ylcarbamoyl}phenyl)-2-methylacrylic acid], for which the EC50 (Table 1) was found to be 2.1 nM. Consider `CCCCCCCCCCC(OC)c1cccc(-c2csc(NC(=O)c3cc(Cl)c(/C=C(\OC)C(=O)O)c(Cl)c3)n2)c1OC` (stereo not shown) [Compound B1438, (Z)-3-(2,6-dichloro-4-{4-[2-methyloxy-3-(1-methyloxyundecyl)phenyl]thiazol-2-ylcarbamoyl}phenyl)-2-methyloxyacrylic acid], for which the EC50 (Table 1) stood at 6.3 nM. Still for that read-out and setting: for `CCCCCCc1cccc2c1OCc1sc(NC(=O)c3cc(F)c(/C=C(\C)C(=O)O)c(F)c3)nc1-2` [Compound A1314, (E)-3-[2,6-difluoro-4-(6-hexyl-4H-chromeno[4,3-d]thiazol-2-ylcabamoyl)phenyl]-2-methylacrylic acid] the value was 12.5 nM. Take `CCCCCCOCCc1cccc(-c2csc(NC(=O)c3cc(Cl)c(/C=C(\OC)C(=O)O)c(Cl)c3)n2)c1OC` [Compound B1929, (Z)-3-(2,6-dichloro-4-{4-[3-(2-hexyloxyethyl)-2-methyloxyphenyl]thiazol-2-ylcarbamoyl)phenyl)-2-methyloxyacrylic acid]: for the setting “Table 2”, the EC50 was 25.8 nM. `CCCCCOC(c1cccc(-c2csc(NC(=O)c3cc(F)c(C=C(C)C(=O)O)c(F)c3)n2)c1F)C1CCCCC1` (stereo not shown) [Compound B14, 3-(4-{4-[3-(1-cyclohexyl-1-n-pentyloxymethyl)-2-fluorophenyl]thiazol-2-ylcarbamoyl}-2,6-difluorophenyl)-2-methylacrylic acid]: the concentration for a half-maximal effect (EC50) (Table 1) stood at 0.73 nM. The same measure, in the same setting: the figure for `CC(=Cc1c(Cl)cc(C(=O)Nc2nc(-c3cccc(CCCOCC(C)(C)C)c3F)cs2)cc1Cl)C(=O)O` [Compound B66, 3-[2,6-dichloro-4-(4-{3-[3-(2,2-dimethylpropyloxy)propyl]-2-fluorophenyl]thiazol-2-ylcarbamoyl}phenyl)-2-methylacrylic acid] is 0.91 nM; for `COc1c(CCOCCCC(C)C)cccc1-c1csc(NC(=O)c2cc(Cl)c(/C=C(\C)C(=O)O)c(Cl)c2)n1` [Compound B1922, (E)-3-[2,6-dichloro-4-(4-{2-methyloxy-3-[2-(4-methylpentyloxy)ethyl]phenyl}thiazol-2-ylcarbamoyl)phenyl)-2-methylacrylic acid] it is 13.6 nM; for “3-[2,6-difluoro-4-(4-{2-fluoro-3-{1-(3-methylbutyloxypropyl)phenyl]thiazol-2-ylcarbamoyl}phenyl)-2-methylacrylic acid [Compound B18]” it is 0.57 nM.

Consider `COC(c1cccc(-c2csc(NC(=O)c3cc(Cl)c(C=C(C)C(=O)O)c(Cl)c3)n2)c1F)C(C)(C)C` (stereo not shown) [Compound B64, 3-(2,6-dichloro-4-{4-[2-fluoro-3-(1-methyloxy-2,2-dimethylpropyl)phenyl]thiazol-2-ylcarbamoyl}phenyl)-2-methylacrylic acid], for which the EC50 (Table 1) came to 1.19 nM.

As for `CCC(CC)COCc1cccc(-c2csc(NC(=O)c3cc(Cl)c(/C=C(\C)C(=O)O)c(Cl)c3)n2)c1OC` [Compound B2025, (E)-3-(2,6-dichloro-4-{4-[3-(2-ethylbutyloxymethyl)-2-methyloxyphenyl]thiazol-2-ylcarbamoyl}phenyl)-2-methylacrylic acid], the EC50 (Table 1) came to 3.2 nM.

As to `CCCCOCCCc1cccc(-c2csc(NC(=O)c3cc(Cl)c(/C=C(\C)C(=O)O)c(Cl)c3)n2)c1OC` [Compound B1124, (E)-3-(4-{4-[3-(3-butyloxypropyl)-2-methyloxyphenyl]thiazol-2-ylcarbamoyl}-2,6-dichlorophenyl)-2-methylacrylic acid], the EC50 (Table 1) turned out to be 15.8 nM. Still for that read-out and setting: the figure for `CCCCCc1cccc2c1CCc1sc(NC(=O)c3cc(F)c(C=C(C)C(=O)O)c(F)c3)nc1-2` [Compound A2, 3-[2,6-difluoro-4-(4,5-dihydro-6-pentylnaphtho[1,2-d]thiazol-2-ylcabamoyl)phenyl]-2-methylacrylic acid] is 4 nM; for `CCCCOC(C)c1cccc(-c2csc(NC(=O)c3cc(F)c(C=C(C)C(=O)O)c(F)c3)n2)c1F` (stereo not shown) [Compound B50, 3-(4-{4-[3-(1-n-butyloxyethyl)-2-fluorophenyl]thiazol-2-ylcarbamoyl}-2,6-difluorophenyl)-2-methylacrylic acid] it is 0.8 nM. On the same count and under the same terms, for `CCCCC(OCCC)c1cccc(-c2csc(NC(=O)c3cc(Cl)c(C=C(C)C(=O)O)c(Cl)c3)n2)c1F` (stereo not shown) [Compound B86, 3-(2,6-dichloro-4-{4-[2-fluoro-3-(1-n-propyloxypentyl)phenyl]thiazol-2-ylcarbamoyl}phenyl)-2-methylacrylic acid] the value was 0.63 nM. On the same count and under the same terms, for `CCCC(CCc1cccc2c1CCc1sc(NC(=O)c3cc(F)c(C=C(C)C(=O)O)c(F)c3)nc1-2)OC` (stereo not shown) [Compound A12, 3-{2,6-difluoro-4-[4,5-dihydro-6-(3-methyloxyhexyl)naphtho[1,2-d]thiazol-2-ylcabamoyl]phenyl}-2-methylacrylic acid] the value was 0.8 nM. Take `COc1c(CCCOCC2CCC2)cccc1-c1csc(NC(=O)c2cc(F)c(/C=C(\C)C(=O)O)c(F)c2)n1` [Compound B1854, (E)-3-(4-{4-[3-(3-cyclobutylmethyloxypropyl)-2-methyloxyphenyl]thiazol-2-ylcarbamoyl}-2,6-difluorophenyl)-2-methylacrylic acid]: the concentration for a half-maximal effect (EC50) (Table 2) was 24.4 nM. On the same count and under the same terms, for `COc1c(OCCC2CCCCC2)cccc1-c1csc(NC(=O)c2cc(Cl)c(/C=C(\C)C(=O)O)c(Cl)c2)n1` [Compound B1918] the value was 21 nM. As for `CCCCCOC(CCCC)c1cccc(-c2csc(NC(=O)c3cc(F)c(C=C(C)C(=O)O)c(F)c3)n2)c1F` (stereo not shown) [Compound B26, 3-(2,6-difluoro-4-{4-[2-fluoro-3-(1-n-pentyloxypentyl)phenyl]thiazol-2-ylcarbamoyl}phenyl)-2-methylacrylic acid], the EC50 (Table 1) stood at 0.39 nM.
